Where two headings read alike, the source gives them in different places.
Experiments:
[1] = at 25° C., literature values as published in Wikipedia, cited from earlier work
[2] = Solvency of solvent compositions for Monomer A and Monomer B (height of solid residue); assay type: physicochemical; conditions: for concentration of monomer in the final solution: in each of the samples with solvency of 100% (NMF, IE1, IE2, IE3, IE4)
Procedure: For every sample, the height of the monomer mixture in the vial was 4 mm. The vials were placed in an oven at 54° C. without agitation for 13 hours. The vials returned to room temperature and were photographed again with the PICA-II instrument. The height of the solid residue was observed. It is considered that the residue (if present) was undissolved Monomer A, undissolved Monomer B, or a mixture thereof. The solvency % of each solvent composition was determined as follows: […]

SMILES	concentration of monomer in the final solution [2]	Water Solubility [1]	other results
CCCCOCCOCCO [DBE, diethylene glycol n-butyl ether]	–	–	Water Solubility ([1]; in words): soluble
O=C1OC(=O)c2cc(Oc3ccc4c(c3)C(=O)OC4=O)ccc21 [Monomer A]	5 % by weight based on the weight of the solvent composition	–	–
Nc1ccc(-c2ccc(N)cc2C(F)(F)F)c(C(F)(F)F)c1 [Monomer B]	5 % by weight based on the weight of the solvent composition	–	–
CNC=O [NMF, n-methylformamide, reference compound]	–	–	Solvency (%) ([2]; 0.125 g Monomer A + 0.125 g Monomer B in 2.5 g solvent, 54° C. without agitation for 13 hours, then room temperature): 100%; Quality as solvent for Monomer A and Monomer B ([2]; judgement in words based on Table 4): good solvent
OCCOc1ccccc1 [POE, 2-phenoxyethanol]	–	26 g/kg	–
NC(N)=O [Urea]	–	545 mg/mL	–
